Results as given in article PMC5154195, “Ester-Modified Cyclometalated Iridium(III) Complexes as Mitochondria-Targeting Anticancer Agents” (Scientific Reports, 2016).

Experiments:
A549 cells [1] = test: Cellular uptake efficacy by ICP-MS; format: cell-based, human; conditions: 20 μM, 1 h
Experimental: It has been reported that cellular uptake efficacy of a compound is affected by many factors, such as lipophilicity, polarization and surface area[32]. As iridium is an exogenous element, its cellular uptake level can be quantitatively recorded by ICP-MS (inductively coupled plasma-mass spectrometry)[15]. A549 (human lung adenocarcinoma epithelial) cells were incubated with Ir(III) complexes (20 μM) for 1 h and analysed. Cell penetration capability of these complexes is correlated with the length of ester group and lipophilicity (Fig. 3B).
A549 cells were cultured in 60 mm dishes and incubated for 24 h. The medium was removed and replaced with medium-DMSO (99:1, v/v) containing Ir(III) complexes (20 μM). After 1 h incubation, cells were trypsined and collected in PBS. After counted by hemocytometer, cells were digested with HNO3 (65%, 300 μL) at room temperature for 24 h. The solution was diluted to a final volume of 10 mL with Milli-Q water containing 10 ppb In. The iridium content was measured by ICP-MS using In as the internal reference.

[2] = system: A549R (cisplatin-resistant A549) cells; test: MTT cell viability assay, A549R; format: cell-based, human; conditions: 44 h + 4 h MTT, read-out: IC50 (50% inhibition of cell viability)
Experimental: (§1) HeLa, A549, A549R, MCF-7 and HepG2 cells were obtained from Experimental Animal Centre of Sun Yat-Sen University (Guangzhou, China). Cells were cultured in DMEM (Dulbecco’s modified Eagle’s medium, Gibco BRL) or RPMI 1640 (Roswell Park Memorial Institute 1640, Gibco BRL) medium, containing 10% FBS (fetal bovine serum, Gibco BRL), 100 μg/mL streptomycin and 100 U/mL penicillin (Gibco BRL).
(§2) The cytotoxicity of the tested complexes towards different cell lines was determined by MTT assay. Cells were cultured in 96-well plates for 24 h. Cells were incubated with a series of concentrations of complexes for another 44 h. 20 μL MTT solution (5 mg/mL) was added into each well and incubated for another 4 h. Then culture media was removed and 150 μL DMSO was added into each well. The plate was shaken for 10 min. The absorbance at 595 nm was measured by a microplate reader.

[3] = system: porcine liver esterase (PLE); test: Hydrolysis by PLE in vitro (ESI-MS); format: in vitro ADME; conditions: 20 μM, 0.6 units PLE, Tris-HCl 10 mM pH 7.4, 2 h
Experimental: Ester-modified compounds have been used as prodrugs widely. They can be hydrolysed by a variety of esterases selectively or non-selectively, to release active pharmacophores. Herein, porcine liver esterase (PLE) was used as a model to investigate the hydrolytic process of the ester bonds in Ir(III) complexes. The hydrolysis of ten Ir(III) complexes by PLE were detected by ESI-MS (Supplementary Fig. S14)[28]. Equal amounts of Ir(III) complexes (20 μM, 100 μL) were incubated with PLE (0.6 units) in Tris-HCl solution (10 mM, pH 7.4) for 2 h. […] Other complexes with ester substituents show peaks assigned to intact complexes as well as peaks corresponding to hydrolytic products.
Ir(III) complexes (20 μM) were dissolved in freshly prepared Tris-HCl (10 mM, pH 7.4) buffer. Each sample contained 100 μL Ir(III) solution and 0.6 units PLE. After the samples were incubated at 298 K for 2 h, 400 μL acetone (253 K) was added into each sample to quench the enzymatic hydrolysis. Then the samples were centrifuged at 15000 × g for 10 min. The supernatant was collected and analyzed by ESI-MS.

[4] = system: HepG2 (human hepatocellular liver carcinoma) cells; test: MTT cell viability assay, HepG2; format: cell-based; conditions: 44 h + 4 h MTT, read-out: IC50 (50% inhibition of cell viability)
Experimental: as §1, §2

[5] = system: HeLa (human cervical cancer) cells; test: MTT cell viability assay, HeLa; format: cell-based; conditions: 44 h + 4 h MTT, read-out: IC50 (50% inhibition of cell viability)
Experimental: as §1, §2

[6] = system: A549 (human lung adenocarcinoma epithelial) cells; test: MTT cell viability assay, A549; format: cell-based; conditions: 44 h + 4 h MTT, read-out: IC50 (50% inhibition of cell viability)
Experimental: as §1, §2

[7] = system: MCF-7 (human breast adenocarcinoma) cells; test: MTT cell viability assay, MCF-7; format: cell-based; conditions: MCF-7, MTT, 44 h + 4 h MTT; read-out: IC50 (50% inhibition of cell viability)
Experimental: as §1, §2

[8] = Lipophilicity (log Po/w), shake-flask method with ICP-MS; format: physicochemical; conditions: n-octanol/PBS
Experimental: According to the Lipinski’s rule, appropriate hydrophilicity and lipophilicity are of vital importance for drugs. Excessive hydrophilicity decreases penetration ability of a drug to cross phospholipid layer membrane. On the contrary, high lipophilicity means poor water solubility, which hinders biomedical applications. The lipophilicity, as represented by the log Po/w values, was determined by the shake-flask method according to a literature procedure. The log Po/w values of these Ir(III) complexes fall between −0.81 and 2.59 (Fig. 3A).
The lipophilicity (log Po/w) was determined by the flask-shaking method and analyzed by ICP-MS. Equal amounts of PBS and n-octanol were shaken in the oscillator for 24 h. The mixture was separated to obtain oil and water phases. The mixtures were centrifuged at 3000 × g for 5 min. Equal volumes of n-octanol and PBS were added to the supernatant. The mixtures were shaken for another 24 h, and then centrifuged at 3000 × g for 5 min. The oil and water phases were separated carefully and dried under vacuum. The dried sample was dissolved by HNO3 (65%, 300 μL) and diluted to a final volume of 10 mL with Milli-Q water containing 10 ppb In. The Ir(III) concentration (Co or Cw) was measured by ICP-MS using In as the internal reference. The Po/w value corresponds to Co/Cw.

[9] = system: all the cell lines tested (A549, A549R, HeLa, HepG2, MCF-7); test: Cytotoxicity across the cell line panel (MTT); format: cell-based, human
Experimental: The cytotoxicity was evaluated in A549, A549R (cisplatin-resistant A549), HeLa (human cervical cancer), HepG2 (human hepatocellular liver carcinoma) and MCF-7 (human breast adenocarcinoma) cells. Cisplatin was also tested as a positive control. Generally, the anti-proliferative efficacy of Ir(III) complexes is in the following order: 4a ≈ 4b > 5a ≈ 5b > 3b > 3a > 2b > 2a > 1a ≈ 1b, which corresponds to their lipophilicity and cellular uptake efficacy (Table 1). […] Complexes with longer ester substitutions (4a, 5a, 4b and 5b) show much higher cytotoxicity than the other complexes. […] For complexes 1a and 1b, converting the carboxyl acid groups into ester groups can facilitate cellular uptake and improve their anti-proliferative effects. As carboxyl groups are usually deprotonated at physiological pH, the phenomena may be partially attributed to the alteration of molecular charge from neutral/negative to positive under physiological conditions.
as §2, with “The plate was shaken for 10 min.” left out

A549 cells [10] = test: Inhibition of autophagy by 3-MA, MTT cell viability; format: cell-based, human; conditions: A549, 3-MA pre-treatment 1 h, 24 h
Experimental: Autophagy is a complicated biological process, which can play either pro-survival or pro-death roles in anticancer therapy. 3-methyladenine (3-MA), a specific class III PI3K inhibitor that can block autophagosome formation, was used to investigate the relationship between autophagy and anti-proliferative activities of 4a and 4b[51]. The anti-proliferative effects are diminished by pre-treatment of A549 cells with 3-MA (5 mM) for 1 h (Fig. 8F). Cell viabilities increase by approximately 1.09−fold and 1.13−fold for 4a (2 μM, 24 h) and 4b (2 μM, 24 h), respectively.
Cells were cultured in a 96-well plate and grown to confluence. Cells were pre-treated with or without 3-MA (5 mM) for 1 h, then incubated with the complexes at the indicated concentrations for 24 h. Cell viability was measured by MTT assay.

SMILES	cellular uptake level / penetration ability (A549 cells [1])	IC50 [2] [µM]	hydrolysis of ester bonds by PLE (ESI-MS peaks) [3]	IC50 [4] [µM]	IC50 [5] [µM]	IC50 [6] [µM]	IC50 [7] [µM]	Lipophilicity (log Po/w) [8]	cytotoxicity against all the cell lines tested [9]	effect of 3-MA pre-treatment on induced cell death (A549 cells [10])
O=C([O-])c1cc[n+]2c(c1)-c1cc(C(=O)O)cc[n+]1[Ir-3]213([c]2ccccc2-c2cccc[n+]21)[c]1ccccc1-c1cccc[n+]13 [Complex 1a, Ir(ppy)2(Hdcbpy)]	lowest penetration ability	> 100	remain unchanged	> 100	> 100	> 100	> 100	-0.81	inactive	–
O=C([O-])c1cc[n+]2c(c1)-c1cc(C(=O)O)cc[n+]1[Ir-3]213([c]2cc(F)cc(F)c2-c2cccc[n+]21)[c]1cc(F)cc(F)c1-c1cccc[n+]13 [Complex 1b, Ir(dfppy)2(Hdcbpy)]	lowest penetration ability	> 100	remain unchanged	> 100	> 100	> 100	> 100	-0.49	inactive	–
N.N.[Cl][Pt][Cl] [cisplatin, reference compound]	–	79.4 ± 6.1	–	15.8 ± 1.2	25.1 ± 2.2	23.7 ± 1	16.8 ± 1.5	–	–	enhance cell death
